Reference: ChEMBL document CHEMBL5463729, “Data for DCP probe BAY 1753011” (2023)

How the values were obtained:
[1] = biological target: Protein kinase C theta type (Homo sapiens) (UniProt Q04759); experiment: Inhibition of PKCtheta(h) at 10.0 µM in the Eurofins Kinase panel; details: Compound concentration 10.0 uM
[2] = biological target: Casein kinase 2 (Homo sapiens) (UniProt P67870+P68400+P19784+Q8NEV1); experiment: Inhibition of CK2(h) at 10.0 µM in the Eurofins Kinase panel; type: protein assay; details: Compound concentration 10.0 uM
[3] = biological target: Activin receptor type-1B (Homo sapiens) (UniProt P36896); experiment: Inhibition of ALK4(h) at 10.0 µM in the Eurofins Kinase panel; details: Compound concentration 10.0 uM
Vasopressin V1a receptor = Vasopressin V1a receptor (Homo sapiens, UniProt P37288)
[4] = biological target: Testis-specific serine/threonine-protein kinase 1 (Homo sapiens) (UniProt Q9BXA7); experiment: Inhibition of TSSK1(h) at 10.0 µM in the Eurofins Kinase panel; details: Compound concentration 10.0 uM
[5] = biological target: PI3-kinase p110-delta/p85-alpha (Homo sapiens) (UniProt P27986+O00329); experiment: Inhibition of PI3 Kinase (p110d/p85a)(h) at 10.0 µM in the Eurofins Kinase panel; type: protein-complex assay; details: Compound concentration 10.0 uM
[6] = biological target: Adenosine receptor A3 (Homo sapiens) (UniProt P0DMS8); details: Compound concentration 10.0 uM
[7] = biological target: Leukocyte tyrosine kinase receptor (Homo sapiens) (UniProt P29376); experiment: Inhibition of LTK(h) at 10.0 µM in the Eurofins Kinase panel; details: Compound concentration 10.0 uM
[8] = biological target: Tyrosine-protein kinase ITK/TSK (Homo sapiens) (UniProt Q08881); experiment: Inhibition of Itk(h) at 10.0 µM in the Eurofins Kinase panel; details: Compound concentration 10.0 uM
[9] = biological target: Mitogen-activated protein kinase kinase kinase 9 (Homo sapiens) (UniProt P80192); experiment: Inhibition of MLK1(h) at 10.0 µM in the Eurofins Kinase panel; details: Compound concentration 10.0 uM
[10] = biological target: Serine/threonine-protein kinase PAK 5 (Homo sapiens) (UniProt Q9P286); experiment: Inhibition of PAK5(h) at 10.0 µM in the Eurofins Kinase panel; details: Compound concentration 10.0 uM
[11] = biological target: Cyclin-dependent kinase 1/cyclin B1 (Homo sapiens) (UniProt P06493+P14635); experiment: Inhibition of CDK1/cyclinB(h) at 10.0 µM in the Eurofins Kinase panel; type: protein-complex assay; details: Compound concentration 10.0 uM
[12] = biological target: Serine/threonine-protein kinase D1 (Homo sapiens) (UniProt Q15139); experiment: Inhibition of PKCmu(h) at 10.0 µM in the Eurofins Kinase panel; details: Compound concentration 10.0 uM
[13] = biological target: Histamine H3 receptor (Homo sapiens) (UniProt Q9Y5N1); details: Compound concentration 10.0 uM
[14] = biological target: Serine/threonine-protein kinase MRCK beta (Homo sapiens) (UniProt Q9Y5S2); experiment: Inhibition of MRCKbeta(h) at 10.0 µM in the Eurofins Kinase panel; details: Compound concentration 10.0 uM
[15] = biological target: G protein-coupled receptor kinase 3 (Homo sapiens) (UniProt P35626); experiment: Inhibition of GRK3(h) at 10.0 µM in the Eurofins Kinase panel; details: Compound concentration 10.0 uM
[16] = biological target: Maternal embryonic leucine zipper kinase (Homo sapiens) (UniProt Q14680); experiment: Inhibition of MELK(h) at 10.0 µM in the Eurofins Kinase panel; details: Compound concentration 10.0 uM
[17] = biological target: Vascular endothelial growth factor receptor 3 (Homo sapiens) (UniProt P35916); experiment: Inhibition of Flt4(h) at 10.0 µM in the Eurofins Kinase panel; details: Compound concentration 10.0 uM
[18] = biological target: Homeodomain-interacting protein kinase 4 (Homo sapiens) (UniProt Q8NE63); experiment: Inhibition of HIPK4(h) at 10.0 µM in the Eurofins Kinase panel; details: Compound concentration 10.0 uM
[19] = biological target: Calcium/calmodulin-dependent protein kinase type IV (Homo sapiens) (UniProt Q16566); experiment: Inhibition of CaMKIV(h) at 10.0 µM in the Eurofins Kinase panel; details: Compound concentration 10.0 uM
[20] = biological target: Endothelin receptor type B (Homo sapiens) (UniProt P24530); details: Compound concentration 10.0 uM
[21] = biological target: Serine/threonine-protein kinase MARK2 (Homo sapiens) (UniProt Q7KZI7); experiment: Inhibition of PAR-1Balpha(h) at 10.0 µM in the Eurofins Kinase panel; details: Compound concentration 10.0 uM
[22] = biological target: Serine/threonine-protein kinase Nek9 (Homo sapiens) (UniProt Q8TD19); experiment: Inhibition of NEK9(h) at 10.0 µM in the Eurofins Kinase panel; details: Compound concentration 10.0 uM
[23] = biological target: Homeodomain-interacting protein kinase 3 (Homo sapiens) (UniProt Q9H422); experiment: Inhibition of HIPK3(h) at 10.0 µM in the Eurofins Kinase panel; details: Compound concentration 10.0 uM
[24] = biological target: Calcium/calmodulin-dependent protein kinase kinase 2 (Homo sapiens) (UniProt Q96RR4); experiment: Inhibition of CaMKK2(h) at 10.0 µM in the Eurofins Kinase panel; details: Compound concentration 10.0 uM
[25] = biological target: Serine/threonine-protein kinase PLK4 (Homo sapiens) (UniProt O00444); experiment: Inhibition of Plk4(h) at 10.0 µM in the Eurofins Kinase panel; details: Compound concentration 10.0 uM
[26] = biological target: RAF proto-oncogene serine/threonine-protein kinase (Homo sapiens) (UniProt P04049); experiment: Inhibition of c-RAF(h) at 10.0 µM in the Eurofins Kinase panel; details: Compound concentration 10.0 uM
[27] = biological target: Delta-type opioid receptor (Homo sapiens) (UniProt P41143); details: Compound concentration 10.0 uM
[28] = biological target: T1, cGMP-dependent protein kinase 1 (Homo sapiens) (UniProt Q13976); experiment: Inhibition of PKG1beta(h) at 10.0 µM in the Eurofins Kinase panel; details: Compound concentration 10.0 uM
T1 sequence (whole entry): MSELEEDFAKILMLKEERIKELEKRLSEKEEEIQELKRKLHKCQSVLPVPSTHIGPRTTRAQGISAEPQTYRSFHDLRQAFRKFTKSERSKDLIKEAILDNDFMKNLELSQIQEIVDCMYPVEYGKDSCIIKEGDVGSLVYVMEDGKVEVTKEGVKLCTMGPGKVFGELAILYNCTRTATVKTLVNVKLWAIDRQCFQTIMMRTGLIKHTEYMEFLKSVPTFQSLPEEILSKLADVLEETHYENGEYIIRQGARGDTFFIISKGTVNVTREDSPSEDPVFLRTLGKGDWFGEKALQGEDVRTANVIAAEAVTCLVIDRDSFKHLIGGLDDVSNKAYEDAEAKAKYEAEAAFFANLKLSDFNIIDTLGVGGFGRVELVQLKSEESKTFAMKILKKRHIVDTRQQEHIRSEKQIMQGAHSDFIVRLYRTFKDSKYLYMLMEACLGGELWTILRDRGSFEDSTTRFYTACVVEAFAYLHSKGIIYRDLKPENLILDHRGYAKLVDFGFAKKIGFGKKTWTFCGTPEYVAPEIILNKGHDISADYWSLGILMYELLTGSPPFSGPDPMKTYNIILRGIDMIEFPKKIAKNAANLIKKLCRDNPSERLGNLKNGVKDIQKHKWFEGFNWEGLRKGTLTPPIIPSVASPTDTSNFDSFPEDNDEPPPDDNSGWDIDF

[29] = biological target: Casein kinase II subunit alpha' (Homo sapiens) (UniProt P19784); experiment: Inhibition of CK2alpha2(h) at 10.0 µM in the Eurofins Kinase panel; details: Compound concentration 10.0 uM
[30] = biological target: NUAK family SNF1-like kinase 2 (Homo sapiens) (UniProt Q9H093); experiment: Inhibition of NUAK2(h) at 10.0 µM in the Eurofins Kinase panel; details: Compound concentration 10.0 uM
Sequence of NUAK family SNF1-like kinase 2 (Homo sapiens) (Q9H093 whole entry): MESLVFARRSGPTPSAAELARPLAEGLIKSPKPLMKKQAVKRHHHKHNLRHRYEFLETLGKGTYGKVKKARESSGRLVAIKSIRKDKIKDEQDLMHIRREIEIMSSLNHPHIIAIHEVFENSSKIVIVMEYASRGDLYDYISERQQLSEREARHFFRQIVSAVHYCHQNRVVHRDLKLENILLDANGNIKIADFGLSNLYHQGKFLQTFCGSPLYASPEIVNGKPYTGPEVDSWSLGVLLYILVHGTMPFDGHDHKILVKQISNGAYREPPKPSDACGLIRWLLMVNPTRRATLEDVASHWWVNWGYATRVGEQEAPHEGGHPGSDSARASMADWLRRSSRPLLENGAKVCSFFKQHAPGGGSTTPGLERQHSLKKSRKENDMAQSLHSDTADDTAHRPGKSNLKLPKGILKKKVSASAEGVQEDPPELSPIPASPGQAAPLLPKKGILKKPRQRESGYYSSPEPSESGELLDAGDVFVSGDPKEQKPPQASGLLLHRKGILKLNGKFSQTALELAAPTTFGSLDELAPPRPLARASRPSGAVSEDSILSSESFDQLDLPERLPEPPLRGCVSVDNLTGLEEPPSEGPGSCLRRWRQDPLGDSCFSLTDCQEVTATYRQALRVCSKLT

Sequence of Histamine H3 receptor (Homo sapiens) (Q9Y5N1 whole entry): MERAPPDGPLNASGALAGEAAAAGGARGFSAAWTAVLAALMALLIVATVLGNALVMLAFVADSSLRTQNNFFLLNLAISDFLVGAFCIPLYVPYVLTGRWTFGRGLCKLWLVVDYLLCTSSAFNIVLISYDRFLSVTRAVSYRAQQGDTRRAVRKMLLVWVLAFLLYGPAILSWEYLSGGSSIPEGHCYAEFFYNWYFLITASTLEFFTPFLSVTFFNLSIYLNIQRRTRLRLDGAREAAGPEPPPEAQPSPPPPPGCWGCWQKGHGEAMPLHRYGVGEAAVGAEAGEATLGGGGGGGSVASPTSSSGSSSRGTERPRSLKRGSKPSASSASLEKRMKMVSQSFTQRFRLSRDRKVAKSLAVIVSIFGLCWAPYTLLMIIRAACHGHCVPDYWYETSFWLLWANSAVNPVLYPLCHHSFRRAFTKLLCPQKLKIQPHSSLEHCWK
Sequence of Delta-type opioid receptor (Homo sapiens) (P41143 whole entry): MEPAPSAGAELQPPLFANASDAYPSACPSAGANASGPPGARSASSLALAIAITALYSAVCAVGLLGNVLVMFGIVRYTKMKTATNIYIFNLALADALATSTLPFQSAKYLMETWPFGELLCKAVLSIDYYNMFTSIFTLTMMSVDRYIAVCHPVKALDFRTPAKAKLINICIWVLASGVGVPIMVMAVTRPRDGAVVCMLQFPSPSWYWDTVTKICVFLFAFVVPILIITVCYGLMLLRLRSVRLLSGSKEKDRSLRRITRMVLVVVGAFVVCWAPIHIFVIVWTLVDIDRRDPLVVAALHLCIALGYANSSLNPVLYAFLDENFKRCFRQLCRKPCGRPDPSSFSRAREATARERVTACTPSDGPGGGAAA
Sequence of Mitogen-activated protein kinase kinase kinase 9 (Homo sapiens) (P80192 whole entry, looked up): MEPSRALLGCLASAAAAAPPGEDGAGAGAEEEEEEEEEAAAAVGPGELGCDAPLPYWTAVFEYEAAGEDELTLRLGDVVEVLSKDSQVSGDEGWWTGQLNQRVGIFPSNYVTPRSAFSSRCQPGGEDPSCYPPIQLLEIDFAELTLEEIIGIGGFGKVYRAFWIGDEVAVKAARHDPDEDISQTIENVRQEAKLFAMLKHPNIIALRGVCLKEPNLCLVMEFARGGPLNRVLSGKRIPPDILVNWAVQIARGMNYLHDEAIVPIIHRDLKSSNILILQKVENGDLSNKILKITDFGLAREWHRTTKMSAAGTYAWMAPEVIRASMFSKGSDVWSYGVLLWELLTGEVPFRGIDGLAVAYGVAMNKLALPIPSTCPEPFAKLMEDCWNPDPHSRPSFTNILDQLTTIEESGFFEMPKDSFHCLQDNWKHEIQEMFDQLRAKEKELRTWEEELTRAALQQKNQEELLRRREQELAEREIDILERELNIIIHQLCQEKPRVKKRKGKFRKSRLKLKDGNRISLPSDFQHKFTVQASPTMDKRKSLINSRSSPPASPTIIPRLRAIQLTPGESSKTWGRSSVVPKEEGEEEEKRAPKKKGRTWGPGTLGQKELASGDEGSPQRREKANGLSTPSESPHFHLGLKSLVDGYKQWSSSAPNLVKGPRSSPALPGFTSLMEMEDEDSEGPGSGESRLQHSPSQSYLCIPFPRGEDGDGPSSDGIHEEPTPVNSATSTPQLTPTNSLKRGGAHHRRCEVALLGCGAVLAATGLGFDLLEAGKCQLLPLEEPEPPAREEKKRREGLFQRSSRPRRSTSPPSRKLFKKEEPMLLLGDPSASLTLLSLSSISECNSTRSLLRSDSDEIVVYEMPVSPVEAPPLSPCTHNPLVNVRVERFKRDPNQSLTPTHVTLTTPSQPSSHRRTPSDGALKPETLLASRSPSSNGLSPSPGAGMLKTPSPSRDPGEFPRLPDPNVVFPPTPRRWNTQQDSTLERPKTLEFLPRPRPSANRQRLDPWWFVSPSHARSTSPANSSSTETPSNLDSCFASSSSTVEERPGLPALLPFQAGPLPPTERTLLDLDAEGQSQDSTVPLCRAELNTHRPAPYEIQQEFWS
Sequence of Activin receptor type-1B (Homo sapiens) (P36896 whole entry): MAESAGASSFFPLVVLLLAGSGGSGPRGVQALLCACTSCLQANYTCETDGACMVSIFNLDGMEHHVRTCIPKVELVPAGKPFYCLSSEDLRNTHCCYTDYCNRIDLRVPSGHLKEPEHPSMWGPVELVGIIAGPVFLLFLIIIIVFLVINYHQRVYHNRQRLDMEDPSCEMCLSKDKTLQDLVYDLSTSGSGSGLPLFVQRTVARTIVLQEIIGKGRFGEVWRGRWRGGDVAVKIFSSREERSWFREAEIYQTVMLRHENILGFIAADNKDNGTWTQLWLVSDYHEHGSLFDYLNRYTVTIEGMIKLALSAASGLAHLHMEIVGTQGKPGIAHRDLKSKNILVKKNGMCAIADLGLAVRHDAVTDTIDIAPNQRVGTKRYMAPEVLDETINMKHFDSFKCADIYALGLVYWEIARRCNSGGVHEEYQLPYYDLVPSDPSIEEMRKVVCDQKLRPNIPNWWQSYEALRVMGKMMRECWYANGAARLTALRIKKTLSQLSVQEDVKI
Sequence of Serine/threonine-protein kinase D1 (Homo sapiens) (Q15139 whole entry): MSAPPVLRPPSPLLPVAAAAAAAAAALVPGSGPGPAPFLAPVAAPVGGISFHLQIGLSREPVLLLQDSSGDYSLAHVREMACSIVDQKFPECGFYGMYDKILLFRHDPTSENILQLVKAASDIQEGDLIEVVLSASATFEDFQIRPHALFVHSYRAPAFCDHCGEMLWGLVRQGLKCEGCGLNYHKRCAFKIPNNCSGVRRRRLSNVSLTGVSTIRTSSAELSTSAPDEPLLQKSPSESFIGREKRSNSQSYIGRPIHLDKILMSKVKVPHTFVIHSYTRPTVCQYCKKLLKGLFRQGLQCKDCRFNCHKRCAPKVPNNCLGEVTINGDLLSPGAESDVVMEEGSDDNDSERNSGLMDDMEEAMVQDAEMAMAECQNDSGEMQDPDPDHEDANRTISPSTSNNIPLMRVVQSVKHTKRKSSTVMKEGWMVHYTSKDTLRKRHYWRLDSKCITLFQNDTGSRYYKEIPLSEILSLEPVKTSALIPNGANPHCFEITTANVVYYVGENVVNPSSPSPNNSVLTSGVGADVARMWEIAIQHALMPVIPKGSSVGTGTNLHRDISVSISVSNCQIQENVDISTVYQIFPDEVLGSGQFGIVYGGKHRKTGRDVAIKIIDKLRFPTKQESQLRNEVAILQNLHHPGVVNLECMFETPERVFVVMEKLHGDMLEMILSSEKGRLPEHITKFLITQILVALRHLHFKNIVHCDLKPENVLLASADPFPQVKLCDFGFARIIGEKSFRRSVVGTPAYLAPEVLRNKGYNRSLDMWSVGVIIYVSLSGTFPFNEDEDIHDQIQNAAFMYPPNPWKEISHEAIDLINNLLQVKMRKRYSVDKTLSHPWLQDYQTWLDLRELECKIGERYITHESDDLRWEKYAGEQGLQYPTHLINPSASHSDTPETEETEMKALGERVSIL
Sequence of Testis-specific serine/threonine-protein kinase 1 (Homo sapiens) (Q9BXA7 whole entry): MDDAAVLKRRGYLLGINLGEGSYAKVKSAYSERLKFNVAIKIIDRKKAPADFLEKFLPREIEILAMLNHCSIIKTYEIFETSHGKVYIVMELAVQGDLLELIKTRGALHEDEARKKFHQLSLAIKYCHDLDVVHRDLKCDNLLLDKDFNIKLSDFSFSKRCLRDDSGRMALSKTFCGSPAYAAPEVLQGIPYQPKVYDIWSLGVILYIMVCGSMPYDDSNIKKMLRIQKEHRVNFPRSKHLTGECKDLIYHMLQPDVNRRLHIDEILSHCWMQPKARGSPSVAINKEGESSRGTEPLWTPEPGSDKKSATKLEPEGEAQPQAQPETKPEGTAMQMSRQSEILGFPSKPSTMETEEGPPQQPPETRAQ
Sequence of Tyrosine-protein kinase ITK/TSK (Homo sapiens) (Q08881 whole entry): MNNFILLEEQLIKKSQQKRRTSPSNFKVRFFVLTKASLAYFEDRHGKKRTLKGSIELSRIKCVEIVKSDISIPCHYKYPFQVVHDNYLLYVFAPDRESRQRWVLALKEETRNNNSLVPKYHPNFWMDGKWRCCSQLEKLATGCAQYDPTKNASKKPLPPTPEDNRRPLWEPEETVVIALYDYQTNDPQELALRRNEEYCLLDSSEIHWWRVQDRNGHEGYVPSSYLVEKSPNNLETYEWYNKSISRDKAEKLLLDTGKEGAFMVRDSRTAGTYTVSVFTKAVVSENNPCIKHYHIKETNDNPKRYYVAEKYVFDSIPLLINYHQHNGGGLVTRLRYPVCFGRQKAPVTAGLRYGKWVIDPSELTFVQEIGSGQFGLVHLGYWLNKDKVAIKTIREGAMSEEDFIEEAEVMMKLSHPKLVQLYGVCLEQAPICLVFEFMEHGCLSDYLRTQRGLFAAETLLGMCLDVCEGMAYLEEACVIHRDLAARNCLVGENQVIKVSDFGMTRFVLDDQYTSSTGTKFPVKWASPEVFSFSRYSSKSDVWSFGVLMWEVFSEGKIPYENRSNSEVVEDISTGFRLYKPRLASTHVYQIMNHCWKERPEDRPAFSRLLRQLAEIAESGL

Structure (SMILES)	inhibition [1] [%]	inhibition [2] [%]	inhibition [3] [%]	inhibition [4] [%]	inhibition [5] [%]	inhibition [6] [%]	inhibition [7] [%]	inhibition [8] [%]	inhibition [9] [%]	inhibition [10] [%]	inhibition [11] [%]	inhibition [12] [%]	inhibition [13] [%]	inhibition [14] [%]	inhibition [15] [%]	inhibition [16] [%]	inhibition [17] [%]	inhibition [18] [%]	inhibition [19] [%]	inhibition [20] [%]	further results
O=c1n(Cc2cncn2-c2cccc(Cl)c2)nc(-c2ccc(Cl)cc2)n1C[C@H](O)C(F)(F)F	14.5	-3.37	3.01	7.23	-4.66	7	5.77	-2.65	-1.25	1.49	-8.48	5.31	5.05	-6.31	-3.13	8.95	11.3	4.55	8.3	1	inhibition (Vasopressin V1a receptor; Compound concentration 10.0 uM): 28%; inhibition [21]: 5.49%; inhibition [22]: 9.43%; inhibition [23]: 2.57%; inhibition [24]: -6.67%; inhibition [25]: 10.6%; inhibition [26]: -1.49%; inhibition [27]: 12.4%; inhibition [28]: -1.12%; inhibition [29]: 6.42%; inhibition [30]: -1.01%
C[C@H](O)c1nc(Cn2nc(-c3ccc(Cl)cc3)n(C[C@H](O)C(F)(F)F)c2=O)nn1-c1cccc(Cl)c1 [PECAVAPTAN]	3.44	5.37	4.03	-5.64	-1.36	16	4.2	-7.19	3.5	-3.61	-5.4	-6.51	11.9	-2.21	2.8	10.8	4.21	-3.59	10.3	5	inhibition (Vasopressin V1a receptor; Compound concentration 0.01 uM): 65%; inhibition [21]: 7.5%; inhibition [22]: 7.88%; inhibition [23]: 3.3%; inhibition [24]: -6.9%; inhibition [25]: -5.71%; inhibition [26]: -1.46%; inhibition [27]: 15.4%; inhibition [28]: 1.79%; inhibition [29]: -3.46%; inhibition [30]: 4.99%
